Assay results taken from patent US10238670B2, “9-aminomethyl minocycline compounds and methods of use thereof in urinary tract infection (UTI) treatment” (Paratek Pharmaceuticals, Inc., priority 2016, dated 2019).

How the values were obtained:
[1] = In vitro plasma protein binding (ultrafiltration), rat plasma; type: in vitro ADME, rat (HanWistar); settings: HanWistar, 10-10,000 ng/mL, mean±SD, read-out: mean unbound protein fraction (fu) in plasma
Description: (§1) For human binding studies, plasma was obtained from the blood of three healthy male volunteers. Plasma was defrosted from storage at -20° C. before use, and pools of human plasma were used for all studies. Plasma from mouse, rat, and monkey was supplied by Harlan Laboratories Ltd. (Netherlands), Milan […], Switzerland) and Centre de Primatologie ULP (France), respectively. Protein binding was measured using an ultrafiltration method. To asses the suitability of ultrafiltration, the recovery and free permeation of [^14C]-labelled Compound 1 in PBS buffer were investigated. […] Three 1 mL aliquots per concentration were introduced into […]® devices and spun for 1 min at 2000 g (filtrate ≤500 μL). Samples of the spiked solutions, the filtrate and retentate were quantified by LSC; volumes were determined by weighing. The free permeation of the test compound in PBS was evaluated as follows: Ratio=[Cuf/Cr] with Cuf being the concentration in the ultrafiltrate (ng/mL) and Cr the concentration in the retentate (ng/mL). […] Specifically, concentrations of Compound 1 was determined by an UPLC-MS/MS method. […] The ions monitored for Compound 1 was the parent [M+H]^+ ion at m/z 557.3.0; the product ions at m/z 453.4. […] The quantification was performed using Analyst software and Watson LIMS version 7.2.0.01. […] The lower limit of quantitation was 5.0 ng/mL for Compound 1.

plasma proteins [2] = experiment: as above; type: in vitro ADME, rat (HanWistar); settings: 10-10,000 ng/mL
Description: as §1

E. coli FQS = experiment: In vitro MIC, 2010 surveillance isolates; type: cell-based, Escherichia coli; settings: N=2906
[3] = In vitro plasma protein binding (ultrafiltration), human plasma; type: in vitro ADME; settings: male; human plasma; 10-10,000 ng/mL; mean±SD; read-out: mean unbound protein fraction (fu) in plasma
Description: (§2) For human binding studies, plasma was obtained from the blood of three healthy male volunteers. Plasma was defrosted from storage at -20° C. before use, and pools of human plasma were used for all studies. Plasma from mouse, rat, and monkey was supplied by Harlan Laboratories Ltd. (Netherlands), Milan […], Switzerland) and Centre de Primatologie ULP (France), respectively. Protein binding was measured using an ultrafiltration method. To asses the suitability of ultrafiltration, the recovery and free permeation of [^14C]-labelled Compound 1 in PBS buffer were investigated. […] Three 1 mL aliquots per concentration were introduced into […]® devices and spun for 1 min at 2000 g (filtrate ≤500 μL). Samples of the spiked solutions, the filtrate and retentate were quantified by LSC; volumes were determined by weighing. The free permeation of the test compound in PBS was evaluated as follows: Ratio=[Cuf/Cr] with Cuf being the concentration in the ultrafiltrate (ng/mL) and Cr the concentration in the retentate (ng/mL). […] Specifically, concentrations of Compound 1 was determined by an UPLC-MS/MS method. […] Standards and quality control samples were prepared on the day of analysis by adding a 20 μL aliquot of an appropriate standard or QC spiking solution in methanol. A 25 μL aliquot of the internal standard (at 200 ng/mL in methanol) was added to each well except blanks. […] Samples were processed using protein precipitation. A 0.5 mL aliquot of an acetonitrile/ethanol/acetic acid mixture (90:10:0.1, v:v:v) was added to each sample; samples were mixed using a vortex mixer for 10 minutes, and centrifuged 3800 rpm (approximately 2500×g) for 10 min at 10° C. A 500 μL aliquot of the supernatant transferred to a clean 96 well plate, 2 ml. An aliquot 500 μL of 80:20 (water:acetonitrile) was added to all the samples. Samples were mixed by vortexing for 0.5 min. A 6 μL sample volume was injected into the UPLC/MS/MS system for analysis. Samples were then assayed on an UPLC-MS/MS system, consisting of an Acquity UPLC with a quaternary pump, a ample manager, and sample organizer, coupled to a Sciex API4000 mass spectrometer running Analyst software version 1.4.2 (Foster City, Calif., USA). The mass spectrometer was operated in the positive ion mode, using electro spray ionization, with a source temperature of 500° C. Chromatographic separation was carried out on an Acquity BEH C18, 50×2.1, 1.7 particle (Waters, Mass.) at a flow rate of 1.0 mL/min. The column temperature was maintained at 65° C. […] The ions monitored for Compound 1 was the parent [M+H]^+ ion at m/z 557.3.0; the product ions at m/z 453.4. Data processing: Calibration curves (y=x^2+xb+c or y=ax+b), represented by the plots of the respective peak area ratios (y) of the analyte or the internal standard versus the concentrations (x) of the calibration samples, were generated using weighted (1/x^2 or 1/x) quadratic least-squares regression as the mathematical model. The quantification was performed using Analyst software and Watson LIMS version 7.2.0.01. Concentrations in QC and study samples were calculated from the resulting peak area ratios and interpolation from the regression equations of the respective calibration curves. The lower limit of quantitation was 5.0 ng/mL for Compound 1.

[4] = tested on: E. coli (ATCC 25922) biofilm; experiment: MBEC assay, activity against established 24 hour biofilm; type: cell-based, Escherichia coli; settings: 24 hours challenge
Description: The MBEC™ assay (formerly the Calgary biofilm device; Innovotech Inc., Canada) is a well-established high throughput assay for assessment of anti-biofilm activity of test agents in a 96-well format. Within this assay, the biofilm is formed on the plastic pegs of the plate lid. After inoculated media is introduced to the wells of the 96-well plate, the plate is placed in a shaking incubator to generate the necessary shear force for biofilm growth on the pegs. Following a suitable incubation time, the individual biofilms can be treated with varying concentrations of test agents (challenge plate). After the desired treatment time, the remaining biofilm-associated bacteria are retrieved from the pegs through sonication (recovery plate). Serial dilution and/or plating of the recovered bacterial suspension allow for the quantification of test agents' efficacy against pre-formed biofilms. Additionally, readout of the challenge plate from the biofilm treatment can be used to determine MIC values of test agents. The absence of growth in the recovery plate indicates complete biofilm eradication and the lowest concentration of a test agent that achieves this is designated as the minimum biofilm eradication concentration (MBEC). The MBEC™ assay is also amenable to assess potential synergistic effects of combination treatments, as well as efficacy of test agents in inhibiting or inducing biofilm formation. The MBEC™ plates were inoculated with 10^7 CFU/mL of stationary phase E. coli (ATCC 25922) and incubated for 24 hours to allow formation of a robust biofilm. The individual biofilms formed on the pegs were challenged with varying concentrations of antibiotics for 24 hours, followed by recovery of the surviving bacteria. Bacterial enumeration was performed using a Most Probable Number (MPN) assay (Sutton, Journal of Validation Technology 16 (3): 35-38, 2010, incorporated herein by reference) in a 96-well format.

[5] = 14C-Compound 1 excretion and kidney/blood distribution in rats; type: in vivo, rat
[6] = In vitro plasma protein binding (ultrafiltration), mouse plasma; type: in vitro ADME, mouse (CD-1); settings: CD-1, 10-10,000 ng/mL, mean±SD, read-out: mean unbound protein fraction (fu) in plasma
Description: as §2, with “C.” for “C. A 500 μL aliquot of the supernatant transferred to a clean 96 well plate, 2 ml. An aliquot 500 μL of 80:20 (water:acetonitrile) was added to all the samples. Samples were mixed by vortexing for 0.5 min. A 6 μL sample volume was injected into the UPLC/MS/MS system for analysis. Samples were then assayed on an UPLC-MS/MS system, consisting of an Acquity UPLC with a quaternary pump, a ample manager, and sample organizer, coupled to a Sciex API4000 mass spectrometer running Analyst software version 1.4.2 (Foster City, Calif., USA). The mass spectrometer was operated in the positive ion mode, using electro spray ionization, with a source temperature of 500° C. Chromatographic separation was carried out on an Acquity BEH C18, 50×2.1, 1.7 particle (Waters, Mass.) at a flow rate of 1.0 mL/min. The column temperature was maintained at 65° C.”, “Data processing: Calibration curves (y=x^2+xb+c or y=ax+b), represented by the plots of the respective peak area ratios (y) of the analyte or the internal standard versus the concentrations (x) of the calibration samples, were generated using weighted (1/x^2 or 1/x) quadratic least-squares regression as the mathematical model.” left out

plasma proteins [7] = experiment: as above; type: in vitro ADME, mouse (CD-1); settings: 10-10,000 ng/mL
Description: as §2, with “C.” for “C. A 500 μL aliquot of the supernatant transferred to a clean 96 well plate, 2 ml. An aliquot 500 μL of 80:20 (water:acetonitrile) was added to all the samples. Samples were mixed by vortexing for 0.5 min. A 6 μL sample volume was injected into the UPLC/MS/MS system for analysis. Samples were then assayed on an UPLC-MS/MS system, consisting of an Acquity UPLC with a quaternary pump, a ample manager, and sample organizer, coupled to a Sciex API4000 mass spectrometer running Analyst software version 1.4.2 (Foster City, Calif., USA). The mass spectrometer was operated in the positive ion mode, using electro spray ionization, with a source temperature of 500° C. Chromatographic separation was carried out on an Acquity BEH C18, 50×2.1, 1.7 particle (Waters, Mass.) at a flow rate of 1.0 mL/min. The column temperature was maintained at 65° C.”, “Data processing: Calibration curves (y=x^2+xb+c or y=ax+b), represented by the plots of the respective peak area ratios (y) of the analyte or the internal standard versus the concentrations (x) of the calibration samples, were generated using weighted (1/x^2 or 1/x) quadratic least-squares regression as the mathematical model.” left out

E. coli (ATCC 25922) = settings: Macone 2014; cited from earlier work

## CN(C)c1cc(CNCC(C)(C)C)c(O)c2c1C[C@H]1C[C@H]3[C@H](N(C)C)C(O)=C(C(N)=O)C(=O)[C@@]3(O)C(O)=C1C2=O [Compound 1, 9-[(2,2-dimethyl-propylamino)-methyl]-minocycline]
[1]
  fraction unbound: 0.739 ± 0.121
Plasma proteins [2]
  Mean (SD) Bound Fraction: 26.1 (12.3) %
E. coli FQS; MIC 1 μg/ml
  Cumulative % Inhibition at MIC: 87.0%
E. coli FQS; MIC 2 μg/ml
  Cumulative % Inhibition at MIC: 96.6%
E. coli FQS; MIC 4 μg/ml
  Cumulative % Inhibition at MIC: 99.6%
E. coli FQS; MIC 8 μg/ml
  Cumulative % Inhibition at MIC: 99.9%
E. coli FQS; MIC 16 μg/ml
  Cumulative % Inhibition at MIC: 99.9%
E. coli FQS; MIC ≤0.5 μg/ml, listed as head image P00007
  Cumulative % Inhibition at MIC: 58.5%
E. coli FQS; MIC ≥32 μg/ml
  Cumulative % Inhibition at MIC: 100%
[3]
  fraction unbound: 0.787 ± 0.0972
[4]; at around MIC
  reduction of total biofilm-associated bacteria: 1-2 log units
[4]; at higher concentrations
  reduction in bioburden: 4-5 log units
[5]; IV, 5 minutes post dose
  concentration of radioactivity, kidney pelvis: 11,300 ng/g
[5]; IV, 24 hrs post dose
  concentration of radioactivity, blood: 57.6 ng/mL
[5]; oral dosing
  AUCinf, blood: 3030 ng·h/mL
  AUCinf, kidney cortex: 11,000 ng*h/ml
  AUCinf, kidney medulla: 10,900 ng*h/ml
  AUCinf, kidney pelvis: 10,500 ng*h/ml
  Cmax, blood: 125 ng/mL
  Cmax, kidney cortex: 721 ng/g
  Cmax, kidney medulla: 722 ng/g
  Cmax, kidney pelvis: 1580 ng/g
[6]
  fraction unbound: 0.847 ± 0.0531
Plasma proteins [7]
  Mean (SD) Bound Fraction: 15.3 (5.31) %
Plasma proteins [7]; mean±SD
  mean unbound protein fraction (fu) in plasma: 84.7±5.3%
E. coli (ATCC 25922)
  reported MIC against E. coli: 0.5 to 2 µg/mL
